# Test results from patent US20230085307A1, “PYRIDAZINONE COMPOUND AND HERBICIDE” (NISSAN CHEMICAL CORPORATION, priority 2019, published 2023).
# Columns and labels:
# southern crabgrass [1] = assay: Test Example 4: herbicidal effect by soil treatment (Table 19, symbol F); type: in vivo, southern crabgrass (Digitaria ciliaris); settings: amount of applied herbicide 320 g/ha
# In short: (§1)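 Herbicidal effect was rated 3 weeks after treatment, using the scoring criteria of an earlier test. The compound, formulated as an emulsion and diluted in water to a set herbicide amount, had been sprayed uniformly on soil over freshly sown seeds. Growth took place in a greenhouse at 25° C. to 30° C.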
# velvetleaf [2] = assay: Test Example 5: herbicidal effect by foliage application, plastic box (Table 20, symbol M); type: in vivo, velvetleaf (Abutilon theophrasti); settings: foliage application, AAH 320 g/ha, evaluated three weeks after application
# In short: (§2)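 Foliar spray test: emulsion formulation diluted in water to a set application rate, sprayed onto 14-day-old plants raised in diluvial soil at 25° C to 30° C under glass. Both herbicidal effect and crop effect rated visually three weeks later.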
# barnyard grass [3] = assay: Test Example 5: herbicidal effect by foliage application, plastic box (Table 20, symbol H); type: in vivo, barnyard grass (Echinochloa crus-galli); settings: foliage application, AAH 320 g/ha, evaluated three weeks after application
# In short: as §2
# barnyard grass [4] = assay: Test Example 3: herbicidal effect by foliage application, Wagner pot (Table 18, symbol H); type: in vivo, barnyard grass (Echinochloa crus-galli); settings: amount of applied herbicide 320 g/ha
# In short: (§3)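 Plants were sown in alluvial soil held under 0.1–0.5 cm standing water and grown 14 days in a greenhouse at 25–30 °C. An emulsifiable formulation, water-diluted to the set dose, was then sprayed onto the foliage, and effects were scored three weeks later using previously defined criteria.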
# windgrass [5] = assay: Test Example 4: herbicidal effect by soil treatment (Table 19, symbol L); type: in vivo, windgrass (Apera spica-venti); settings: amount of applied herbicide 320 g/ha
# In short: as §1
# late watergrass = assay: Test Example 1: herbicidal activity, application before weed generation under submerged conditions (Table 16, symbol A); type: in vivo, late watergrass (Echinochloa oryzicola); settings: 320 g/ha applied herbicide
# In short: (§4)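 Submerged Wagner pots (alluvial soil, 4 cm water) sown with weed seeds and planted with 2.5-leaf rice seedlings; emulsifiable concentrate diluted in water applied to water surface on sowing day. Held in greenhouse at 25-30 °C; injury scored 0-5 by herbicidal rate after three weeks.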
# southern crabgrass [6] = assay: Test Example 5: herbicidal effect by foliage application, plastic box (Table 20, symbol F); type: in vivo, southern crabgrass (Digitaria ciliaris); settings: foliage application, AAH 320 g/ha, evaluated three weeks after application
# In short: as §2
# lambsquarters [7] = assay: Test Example 5: herbicidal effect by foliage application, plastic box (Table 20, symbol O); type: in vivo, lambsquarters (Chenopodium album); settings: foliage application, AAH 320 g/ha, evaluated three weeks after application
# In short: as §2
# wild oat [8] = assay: Test Example 4: herbicidal effect by soil treatment (Table 19, symbol I); type: in vivo, wild oat (Avena fatua); settings: amount of applied herbicide 320 g/ha
# In short: as §1
# green foxtail [9] = assay: Test Example 5: herbicidal effect by foliage application, plastic box (Table 20, symbol G); type: in vivo, green foxtail (Setaria viridis); settings: foliage application, AAH 320 g/ha, evaluated three weeks after application
# In short: as §2
# redroot pigweed [10] = assay: Test Example 4: herbicidal effect by soil treatment (Table 19, symbol N); type: in vivo, redroot pigweed (Amaranthus retroflexus); settings: amount of applied herbicide 320 g/ha
# In short: as §1
# Italian ryegrass [11] = assay: Test Example 5: herbicidal effect by foliage application, plastic box (Table 20, symbol K); type: in vivo, Italian ryegrass (Lolium multiflorum); settings: foliage application, AAH 320 g/ha, evaluated three weeks after application
# In short: as §2
# lambsquarters [12] = assay: Test Example 4: herbicidal effect by soil treatment (Table 19, symbol O); type: in vivo, lambsquarters (Chenopodium album); settings: amount of applied herbicide 320 g/ha
# In short: as §1
# Japanese bulrush = assay: Test Example 1: herbicidal activity, application before weed generation under submerged conditions (Table 16, symbol B); type: in vivo, Japanese bulrush (Schoenoplectus juncoides); settings: 320 g/ha applied herbicide
# In short: as §4
# windgrass [13] = assay: Test Example 5: herbicidal effect by foliage application, plastic box (Table 20, symbol L); type: in vivo, windgrass (Apera spica-venti); settings: foliage application, AAH 320 g/ha, evaluated three weeks after application
# In short: as §2
# green foxtail [14] = assay: Test Example 4: herbicidal effect by soil treatment (Table 19, symbol G); type: in vivo, green foxtail (Setaria viridis); settings: amount of applied herbicide 320 g/ha
# In short: as §1
# wild oat [15] = assay: Test Example 5: herbicidal effect by foliage application, plastic box (Table 20, symbol I); type: in vivo, wild oat (Avena fatua); settings: foliage application, AAH 320 g/ha, evaluated three weeks after application
# In short: as §2
# rice flat sedge = assay: Test Example 3: herbicidal effect by foliage application, Wagner pot (Table 18, symbol E); type: in vivo, rice flat sedge (Cyperus iria); settings: amount of applied herbicide 320 g/ha
# In short: as §3
# barnyard grass [16] = assay: Test Example 4: herbicidal effect by soil treatment (Table 19, symbol H); type: in vivo, barnyard grass (Echinochloa crus-galli); settings: amount of applied herbicide 320 g/ha
# In short: as §1
# false cleavers = assay: Test Example 4: herbicidal effect by soil treatment (Table 19, symbol Q); type: in vivo, false cleavers (Galium spurium); settings: amount of applied herbicide 320 g/ha
# In short: as §1
# chickweed [17] = assay: Test Example 5: herbicidal effect by foliage application, plastic box (Table 20, symbol P); type: in vivo, common chickweed (Stellaria media); settings: foliage application, AAH 320 g/ha, evaluated three weeks after application
# In short: as §2
# redroot pigweed [18] = assay: Test Example 5: herbicidal effect by foliage application, plastic box (Table 20, symbol N); type: in vivo, redroot pigweed (Amaranthus retroflexus); settings: foliage application, AAH 320 g/ha, evaluated three weeks after application
# In short: as §2
# persian speedwell [19] = assay: Test Example 4: herbicidal effect by soil treatment (Table 19, symbol R); type: in vivo, Persian speedwell (Veronica persica); settings: amount of applied herbicide 320 g/ha
# In short: as §1
# blackgrass [20] = assay: Test Example 4: herbicidal effect by soil treatment (Table 19, symbol J); type: in vivo, blackgrass (Alopecurus myosuroides); settings: amount of applied herbicide 320 g/ha
# In short: as §1
# Chinese sprangletop = assay: Test Example 3: herbicidal effect by foliage application, Wagner pot (Table 18, symbol D); type: in vivo, chinese sprangletop (Leptochloa chinensis); settings: amount of applied herbicide 320 g/ha
# In short: as §3
# chickweed [21] = assay: Test Example 4: herbicidal effect by soil treatment (Table 19, symbol P); type: in vivo, common chickweed (Stellaria media); settings: amount of applied herbicide 320 g/ha
# In short: as §1
# velvetleaf [22] = assay: Test Example 4: herbicidal effect by soil treatment (Table 19, symbol M); type: in vivo, velvetleaf (Abutilon theophrasti); settings: amount of applied herbicide 320 g/ha
# In short: as §1
# Italian ryegrass [23] = assay: Test Example 4: herbicidal effect by soil treatment (Table 19, symbol K); type: in vivo, Italian ryegrass (Lolium multiflorum); settings: amount of applied herbicide 320 g/ha
# In short: as §1
# oval-leafed pondweed = assay: Test Example 1: herbicidal activity, application before weed generation under submerged conditions (Table 16, symbol C); type: in vivo, oval-leafed pondweed (Monochoria vaginalis); settings: 320 g/ha applied herbicide
# In short: as §4
# blackgrass [24] = assay: Test Example 5: herbicidal effect by foliage application, plastic box (Table 20, symbol J); type: in vivo, blackgrass (Alopecurus myosuroides); settings: foliage application, AAH 320 g/ha, evaluated three weeks after application
# In short: as §2
# persian speedwell [25] = assay: Test Example 5: herbicidal effect by foliage application, plastic box (Table 20, symbol R); type: in vivo, Persian speedwell (Veronica persica); settings: foliage application, AAH 320 g/ha, evaluated three weeks after application
# In short: as §2
smiles,measurement,setting,value
Cc1nn(C)c(=O)c(-c2c(-c3cccc(O)c3)sc3ccc(F)cc23)c1O [2-336],herbicidal effect on F: southern crabgrass,southern crabgrass [1],3 (Herbicidal rate of 40% or more and less than 70%)
same,"M: velvetleaf, herbicidal effect (criteria 0-5)",velvetleaf [2],1 (Herbicidal rate of 5% or more and less than 20%)
same,"H: barnyard grass, herbicidal effect (criteria 0-5)",barnyard grass [3],1 (Herbicidal rate of 5% or more and less than 20%)
same,herbicidal effect on H: barnyard grass,barnyard grass [4],5 (Herbicidal rate of 90% or more (almost completely withered))
same,herbicidal effect on L: windgrass,windgrass [5],0 (Herbicidal rate of 5% or less (almost no effect))
same,Herbicidal effect on A: late watergrass (grade 0-5),late watergrass,0 (Herbicidal rate of 5% or less (almost no effect))
same,"F: southern crabgrass, herbicidal effect (criteria 0-5)",southern crabgrass [6],5 (Herbicidal rate of 90% or more (almost completely withered))
same,"O: lambsquarters, herbicidal effect (criteria 0-5)",lambsquarters [7],4 (Herbicidal rate of 70% or more and less than 90%)
same,herbicidal effect on I: wild oat,wild oat [8],0 (Herbicidal rate of 5% or less (almost no effect))
same,"G: green foxtail, herbicidal effect (criteria 0-5)",green foxtail [9],5 (Herbicidal rate of 90% or more (almost completely withered))
same,herbicidal effect on N: redroot pigweed,redroot pigweed [10],5 (Herbicidal rate of 90% or more (almost completely withered))
same,"K: Italian ryegrass, herbicidal effect (criteria 0-5)",Italian ryegrass [11],4 (Herbicidal rate of 70% or more and less than 90%)
same,herbicidal effect on O: lambsquarters,lambsquarters [12],3 (Herbicidal rate of 40% or more and less than 70%)
same,Herbicidal effect on B: Japanese bulrush (grade 0-5),Japanese bulrush,3 (Herbicidal rate of 40% or more and less than 70%)
same,"L: windgrass, herbicidal effect (criteria 0-5)",windgrass [13],4 (Herbicidal rate of 70% or more and less than 90%)
same,herbicidal effect on G: green foxtail,green foxtail [14],5 (Herbicidal rate of 90% or more (almost completely withered))
same,"I: wild oat, herbicidal effect (criteria 0-5)",wild oat [15],0 (Herbicidal rate of 5% or less (almost no effect))
same,herbicidal effect on E: rice flat sedge,rice flat sedge,3 (Herbicidal rate of 40% or more and less than 70%)
same,herbicidal effect on H: barnyard grass,barnyard grass [16],4 (Herbicidal rate of 70% or more and less than 90%)
same,herbicidal effect on Q: false cleavers,false cleavers,0 (Herbicidal rate of 5% or less (almost no effect))
same,"P: chickweed, herbicidal effect (criteria 0-5)",chickweed [17],5 (Herbicidal rate of 90% or more (almost completely withered))
same,"N: redroot pigweed, herbicidal effect (criteria 0-5)",redroot pigweed [18],5 (Herbicidal rate of 90% or more (almost completely withered))
same,herbicidal effect on R: persian speedwell,persian speedwell [19],5 (Herbicidal rate of 90% or more (almost completely withered))
same,herbicidal effect on J: blackgrass,blackgrass [20],0 (Herbicidal rate of 5% or less (almost no effect))
same,herbicidal effect on D: Chinese sprangletop,Chinese sprangletop,0 (Herbicidal rate of 5% or less (almost no effect))
same,herbicidal effect on P: chickweed,chickweed [21],3 (Herbicidal rate of 40% or more and less than 70%)
same,herbicidal effect on M: velvetleaf,velvetleaf [22],3 (Herbicidal rate of 40% or more and less than 70%)
same,herbicidal effect on K: Italian ryegrass,Italian ryegrass [23],3 (Herbicidal rate of 40% or more and less than 70%)
same,Herbicidal effect on C: oval-leafed pondweed (grade 0-5),oval-leafed pondweed,0 (Herbicidal rate of 5% or less (almost no effect))
same,"J: blackgrass, herbicidal effect (criteria 0-5)",blackgrass [24],3 (Herbicidal rate of 40% or more and less than 70%)
same,"R: persian speedwell, herbicidal effect (criteria 0-5)",persian speedwell [25],5 (Herbicidal rate of 90% or more (almost completely withered))
